ChEMBL document CHEMBL3045535, “Evaluation of lufenuron as a chemosterilant against fruit flies of the genus Anastrepha (Diptera: Tephritidae)” (2010)
Calls of active or inactive are those of the source. No cut-off for these calls is given here.

How the values were obtained:
Anastrepha obliqua [1] = assay: Reduction of fertility in 7 days old adult of Anastrepha obliqua assessed as reduction of egg hatching at 10 mg/g treated with diet measured after 5 days oviposition; type: functional; design: scale not given: the % may be the effect or the level left
Anastrepha striata [2] = assay: Reduction of fertility in 7 days old adult of Anastrepha striata assessed as reduction of egg hatching at 30 mg/g treated with diet measured after 11 days oviposition; type: functional; design: scale not given: the % may be the effect or the level left
Anastrepha ludens [3] = assay: Reduction of fertility in 7 days old adult of Anastrepha ludens assessed as reduction of egg hatching at 0.1 mg/g treated with diet measured after 3 days oviposition; type: functional; design: scale not given: the % may be the effect or the level left
Anastrepha ludens [4] = assay: Reduction of fertility in 7 days old adult of Anastrepha ludens assessed as reduction of egg hatching at 0.5 mg/g treated with diet measured after 7 days oviposition; type: functional; design: scale not given: the % may be the effect or the level left
Anastrepha striata [5] = assay: Reduction of fertility in 7 days old adult of Anastrepha striata assessed as reduction of egg hatching at 5 mg/g treated with diet measured after 11 days oviposition; type: functional; design: scale not given: the % may be the effect or the level left
Anastrepha striata [6] = assay: Reduction of fertility in 7 days old adult of Anastrepha striata assessed as reduction of egg hatching at 0.5 mg/g treated with diet measured after 5 days oviposition; type: functional; design: scale not given: the % may be the effect or the level left
Anastrepha obliqua [7] = assay: Reduction of fertility in 7 days old adult of Anastrepha obliqua assessed as reduction of egg hatching at 0.5 mg/g treated with diet measured after 9 days oviposition; type: functional; design: scale not given: the % may be the effect or the level left
Anastrepha obliqua [8] = assay: Reduction of fertility in 7 days old adult of Anastrepha obliqua assessed as reduction of egg hatching at 0.1 mg/g treated with diet measured after 1 day oviposition; type: functional; design: scale not given: the % may be the effect or the level left
Anastrepha obliqua [9] = assay: Reduction of fertility in 7 days old adult of Anastrepha obliqua assessed as reduction of egg hatching at 30 mg/g treated with diet measured after 3 days oviposition; type: functional; design: scale not given: the % may be the effect or the level left
Anastrepha striata [10] = assay: Reduction of fertility in 7 days old adult of Anastrepha striata assessed as reduction of egg hatching at 0.5 mg/g treated with diet measured after 3 days oviposition; type: functional; design: scale not given: the % may be the effect or the level left
Anastrepha ludens [11] = assay: Reduction of fertility in 7 days old adult of Anastrepha ludens assessed as reduction of egg hatching at 0.5 mg/g treated with diet measured after 9 days oviposition; type: functional; design: scale not given: the % may be the effect or the level left
Anastrepha obliqua [12] = assay: Reduction of fertility in 7 days old adult of Anastrepha obliqua assessed as reduction of egg hatching at 0.5 mg/g treated with diet measured after 3 days oviposition; type: functional; design: scale not given: the % may be the effect or the level left
Anastrepha obliqua [13] = assay: Reduction of fertility in 7 days old adult of Anastrepha obliqua assessed as reduction of egg hatching at 10 mg/g treated with diet measured after 11 days oviposition; type: functional; design: scale not given: the % may be the effect or the level left
Anastrepha obliqua [14] = assay: Reduction of fertility in 7 days old adult of Anastrepha obliqua assessed as reduction of egg hatching at 1 mg/g treated with diet measured after 9 days oviposition; type: functional; design: scale not given: the % may be the effect or the level left
Anastrepha ludens [15] = assay: Reduction of fertility in 7 days old adult of Anastrepha ludens assessed as reduction of egg hatching at 1 mg/g treated with diet measured after 1 day oviposition; type: functional; design: scale not given: the % may be the effect or the level left
Anastrepha striata [16] = assay: Effect on fertility in 7 days old adult female of Anastrepha striata at 30 mg/g treated with diet after 24 hr in presence of untreated adult male of Anastrepha striata; type: functional, organism-based
Anastrepha serpentina [17] = assay: Reduction of fertility in 7 days old adult of Anastrepha serpentina assessed as reduction of egg hatching at 30 mg/g treated with diet measured after 3 days oviposition; type: functional; design: scale not given: the % may be the effect or the level left
Anastrepha obliqua [18] = assay: Reduction of fertility in 7 days old adult of Anastrepha obliqua assessed as reduction of egg hatching at 0.1 mg/g treated with diet measured after 9 days oviposition; type: functional; design: scale not given: the % may be the effect or the level left
Anastrepha striata [19] = assay: Effect on fecundity in 7 days old adult male of Anastrepha striata at 30 mg/g treated with diet after 24 hr in presence of untreated adult female of Anastrepha striata; type: functional, organism-based
Anastrepha ludens [20] = assay: Reduction of fertility in 7 days old adult of Anastrepha ludens assessed as reduction of egg hatching at 1 mg/g treated with diet measured after 9 days oviposition; type: functional; design: scale not given: the % may be the effect or the level left
Anastrepha serpentina [21] = assay: Effect on fertility in 7 days old adult male of Anastrepha serpentina at 30 mg/g treated with diet after 24 hr in presence of untreated adult female of Anastrepha serpentina; type: functional, organism-based
Anastrepha striata [22] = assay: Reduction of fertility in 7 days old adult of Anastrepha striata assessed as reduction of egg hatching at 10 mg/g treated with diet measured after 5 days oviposition; type: functional; design: scale not given: the % may be the effect or the level left
Anastrepha ludens [23] = assay: Reduction of fertility in 7 days old adult of Anastrepha ludens assessed as reduction of egg hatching at 10 mg/g treated with diet measured after 3 days oviposition; type: functional; design: scale not given: the % may be the effect or the level left
Anastrepha ludens [24] = assay: Effect on fecundity in 7 days old adult male of Anastrepha ludens at 30 mg/g treated with diet after 24 hr in presence of untreated adult female of Anastrepha ludens; type: functional, organism-based
Anastrepha serpentina [25] = assay: Reduction of fertility in 7 days old adult of Anastrepha serpentina assessed as reduction of egg hatching at 1 mg/g treated with diet measured after 5 days oviposition; type: functional; design: scale not given: the % may be the effect or the level left
Anastrepha ludens [26] = assay: Reduction of fertility in 7 days old adult of Anastrepha ludens assessed as reduction of egg hatching at 30 mg/g treated with diet measured after 9 days oviposition; type: functional; design: scale not given: the % may be the effect or the level left
Anastrepha serpentina [27] = assay: Reduction of fertility in 7 days old adult of Anastrepha serpentina assessed as reduction of egg hatching at 0.1 mg/g treated with diet measured after 7 days oviposition; type: functional; design: scale not given: the % may be the effect or the level left
Anastrepha striata [28] = assay: Reduction of fertility in 7 days old adult of Anastrepha striata assessed as reduction of egg hatching at 10 mg/g treated with diet measured after 1 day oviposition; type: functional; design: scale not given: the % may be the effect or the level left
Anastrepha ludens [29] = assay: Reduction of fertility in 7 days old adult of Anastrepha ludens assessed as reduction of egg hatching at 30 mg/g treated with diet measured after 1 day oviposition; type: functional; design: scale not given: the % may be the effect or the level left
Anastrepha ludens [30] = assay: Reduction of fertility in 7 days old adult of Anastrepha ludens assessed as reduction of egg hatching at 0.5 mg/g treated with diet measured after 3 days oviposition; type: functional; design: scale not given: the % may be the effect or the level left
Anastrepha obliqua [31] = assay: Reduction of fertility in 7 days old adult of Anastrepha obliqua assessed as reduction of egg hatching at 5 mg/g treated with diet measured after 5 days oviposition; type: functional; design: scale not given: the % may be the effect or the level left
Anastrepha obliqua [32] = assay: Reduction of fertility in 7 days old adult of Anastrepha obliqua assessed as reduction of egg hatching at 0.1 mg/g treated with diet measured after 7 days oviposition; type: functional; design: scale not given: the % may be the effect or the level left
Anastrepha serpentina [33] = assay: Reduction of fertility in 7 days old adult of Anastrepha serpentina assessed as reduction of egg hatching at 0.5 mg/g treated with diet measured after 11 days oviposition; type: functional; design: scale not given: the % may be the effect or the level left
Anastrepha serpentina [34] = assay: Reduction of fertility in 7 days old adult of Anastrepha serpentina assessed as reduction of egg hatching at 10 mg/g treated with diet measured after 5 days oviposition; type: functional; design: scale not given: the % may be the effect or the level left
Anastrepha serpentina [35] = assay: Effect on fertility in 7 days old adult female of Anastrepha serpentina at 30 mg/g treated with diet after 24 hr in presence of untreated adult male of Anastrepha serpentina; type: functional, organism-based
Anastrepha obliqua [36] = assay: Reduction of fertility in 7 days old adult of Anastrepha obliqua assessed as reduction of egg hatching at 10 mg/g treated with diet measured after 9 days oviposition; type: functional; design: scale not given: the % may be the effect or the level left
Anastrepha serpentina [37] = assay: Reduction of fertility in 7 days old adult of Anastrepha serpentina assessed as reduction of egg hatching at 30 mg/g treated with diet measured after 1 day oviposition; type: functional; design: scale not given: the % may be the effect or the level left
Anastrepha striata [38] = assay: Reduction of fertility in 7 days old adult of Anastrepha striata assessed as reduction of egg hatching at 0.1 mg/g treated with diet measured after 1 day oviposition; type: functional; design: scale not given: the % may be the effect or the level left
Anastrepha striata [39] = assay: Reduction of fertility in 7 days old adult of Anastrepha striata assessed as reduction of egg hatching at 5 mg/g treated with diet measured after 5 days oviposition; type: functional; design: scale not given: the % may be the effect or the level left
Anastrepha obliqua [40] = assay: Reduction of fertility in 7 days old adult of Anastrepha obliqua assessed as reduction of egg hatching at 0.5 mg/g treated with diet measured after 1 day oviposition; type: functional; design: scale not given: the % may be the effect or the level left

For `O=C(NC(=O)c1c(F)cccc1F)Nc1cc(Cl)c(OC(F)(F)C(F)C(F)(F)F)cc1Cl` (racemic) [LUFENURON], the Activity (Anastrepha obliqua [1]) was 0%, the Activity (Anastrepha striata [2]) was 8% and the Activity (Anastrepha ludens [3]) was 18.7%. It also gave an Activity (Anastrepha ludens [4]) of 12%, an Activity (Anastrepha striata [5]) of 6.7% and an Activity (Anastrepha striata [6]) of 14%. The Activity (Anastrepha obliqua [7]) was 4.7%, the Activity (Anastrepha obliqua [8]) was 14.7% and the Activity (Anastrepha obliqua [9]) was 0%. For the same compound, the Activity (Anastrepha striata [10]) was 22.7%, the Activity (Anastrepha ludens [11]) was 16% and the Activity (Anastrepha obliqua [12]) was 2.7%. For the same compound, the Activity (Anastrepha obliqua [13]) was 0.7%, the Activity (Anastrepha obliqua [14]) was 0% and the Activity (Anastrepha ludens [15]) was 8%. The Activity (Anastrepha striata [16]) was “inactive”, the Activity (Anastrepha serpentina [17]) was 72.3% and the Activity (Anastrepha obliqua [18]) was 6%. The Activity (Anastrepha striata [19]) was “inactive”, the Activity (Anastrepha ludens [20]) was 20% and the Activity (Anastrepha serpentina [21]) was “inactive”. For the same compound, the Activity (Anastrepha striata [22]) was 2%, the Activity (Anastrepha ludens [23]) was 4.7% and the Activity (Anastrepha ludens [24]) was “inactive”. The Activity (Anastrepha serpentina [25]) was 71.8%, the Activity (Anastrepha ludens [26]) was 15.3% and the Activity (Anastrepha serpentina [27]) was 96.7%. It also gave an Activity (Anastrepha striata [28]) of 2%, an Activity (Anastrepha ludens [29]) of 3% and an Activity (Anastrepha ludens [30]) of 12%. For the same compound, the Activity (Anastrepha obliqua [31]) was 0%, the Activity (Anastrepha obliqua [32]) was 8% and the Activity (Anastrepha serpentina [33]) was 86%. The Activity (Anastrepha serpentina [34]) was 54.7%, the Activity (Anastrepha serpentina [35]) was “inactive” and the Activity (Anastrepha obliqua [36]) was 0%. The Activity (Anastrepha serpentina [37]) was 49.2%, the Activity (Anastrepha striata [38]) was 48.7% and the Activity (Anastrepha striata [39]) was 2.7%. For the same compound, the Activity (Anastrepha obliqua [40]) was 8.7%.
